In US9259350B2, “Ophthalmic devices for delivery of beneficial agents” (CooperVision International Holding Company, LP, priority 2012, dated 2016):

Key:
[1] = PSS uptake by hydrated and non-hydrated Proclear lenses; assay type: physicochemical
[2] = Drug uptake by dry vs wet (hydrated) Proclear lenses after autoclave; assay type: physicochemical; conditions: for % Δ Dry vs Wet (drug uptake): Proclear lens; for Drug Uptake, Wet Lens: hydrated Proclear lens; for Drug Uptake, Wet Lens / Drug Uptake, Dry Lens: autoclaved, n=3; for Drug Uptake, Dry Lens: non-hydrated Proclear lens
Protocol: The ability of hydrated and non-hydrated (dry) Proclear lenses to take up olopatadine, ketotifen, and cromolyn was evaluated. At physiological pH, olopatadine is zwitterionic, ketotifen is positively charged, and cromolyn is negatively charged. […] The dry lenses were removed from their original molds, packaged with 3 ml of each drug solution without any intermediate hydration step and autoclaved. For controls, each drug solution was packaged without a lens and autoclaved. After autoclave, the amount of drug in each packaging solution was measured by HPLC.

[3] = εPLL uptake by non-hydrated Proclear lenses in different buffers; assay type: physicochemical; conditions: dry Proclear lens, autoclaved, n=3
Protocol: The uptake and release of εPLL from non-hydrated (i.e. dry) Proclear lenses was evaluated. The εPLL (Chisso Corporation, Tokyo, Japan) was prepared at a concentration of 500 ppm in three different buffers, PBS, TRIS buffered saline (0.023% tris(hydroxymethyl)methylamine, 0.544% trizma hydrochloride, 0.819% NaCl; TBS), or Tris-sorbitol. Lenses were individually packaged, in triplicate, in 1.2 ml of each εPLL preparation and autoclaved. Additionally, vials containing 1.2 ml 500 ppm εPLL in each buffer with no lens (control vials) were also autoclaved. The amounts of εPLL present in the post-autoclave solution of the test lens vials and in the control vial were determined by cationic size exclusion chromatography using a sample injection volume of 5 μl, a Water Acquity UPLC BEH 125 SEC 1.7 μm 4.6×150 mm at room temperature, and a flow rate of 0.4 ml/min using 90% 0.2M NaCl/0.1% TFA in H20: 10% ACN isocratically. The average of the amount of εPLL taken up by each test lens (n=3) was calculated by subtracting the amount of εPLL present in the post-autoclave solution of the test lens vial from the amount of εPLL present in the control vial. Lenses packaged with 500 ppm εPLL in PBS took up an average of 88 μg εPLL. Lenses packaged with 500 ppm εPLL in TBS took up 47 μg εPLL, and lenses packaged with 500 ppm εPLL in Tris-sorbitol took up 208 μg εPLL.

[4] = εPLL uptake by hydrated Proclear lenses, packaging solutions of different ionic strength; assay type: physicochemical
Protocol: (§1) For example, hydrated Proclear contact lenses were packaged and autoclaved in PBS having an ionic strength of about 0.2 and comprising 500 ppm εPLL, an antimicrobial peptide. These lenses took up an average of 5 μg of the εPLL/lens. […] Thus, in various examples, the packaging solution has an ionic strength of less than about 0.15, 0.10, or 0.05 as calculated by the equation: […]

Serratia marcescens = assay: Antimicrobial activity of εPLL-packaged Proclear lenses; assay type: cell-based
Protocol: as §1

[5] = high concentration: 250 μg/ml ketotifen, 1000 μg/ml olopatadine, 2000 μg/ml cromolyn
[6] = low concentration: 25 μg/ml ketotifen, 200 μg/ml olopatadine, 400 μg/ml cromolyn
[7] = high concentration: 250 μg/ml ketotifen (borate buffer), 1000 μg/ml olopatadine (PBS), 2000 μg/ml cromolyn (PBS)
[8] = low concentration: 25 μg/ml ketotifen (borate buffer), 200 μg/ml olopatadine (PBS), 400 μg/ml cromolyn (PBS)

Molecule: C=Cc1ccc(S(=O)(=O)[O-])cc1.[Na+] [compound 206, styrene sulfonate]
- uptake by dry lens compared to wet lens ([1]; Proclear lens): significantly more
- % Δ Dry vs Wet (uptake) ([1]; Proclear lens, 0.01 mole/liter PSS, 48 hours): 16%
- Uptake, Wet Lens ([1]; hydrated Proclear lens, 0.01 mole/liter PSS, 48 hours, n=3): 92 µg
- Uptake, Dry Lens ([1]; non-hydrated Proclear lens, 0.01 mole/liter PSS, 48 hours, n=3): 110 µg

Molecule: CN1CCC(=C2c3ccccc3CC(=O)c3sccc32)CC1 [ketotifen]
- % Δ Dry vs Wet (drug uptake) [2, 5]: −6%
- % Δ Dry vs Wet (drug uptake) [2, 6]: −17%
- Drug Uptake, Wet Lens [2, 7]: 122 µg
- Drug Uptake, Wet Lens [2, 8]: 12 µg
- Drug Uptake, Dry Lens [2, 7]: 115 µg
- Drug Uptake, Dry Lens [2, 8]: 10 µg

Molecule: CN(C)CC/C=C1/c2ccccc2COc2ccc(CC(=O)O)cc21 [olopatadine]
- % Δ Dry vs Wet (drug uptake) [2, 5]: 6%
- % Δ Dry vs Wet (drug uptake) [2, 6]: 16%
- Drug Uptake, Wet Lens [2, 7]: 202 µg
- Drug Uptake, Wet Lens [2, 8]: 45 µg
- Drug Uptake, Dry Lens [2, 7]: 215 µg
- Drug Uptake, Dry Lens [2, 8]: 52 µg

Molecule: epsilon polylysine [εPLL]
- εPLL uptake (average) ([3]; 500 ppm εPLL in PBS): 88 µg
- εPLL uptake ([3]; 500 ppm εPLL in TBS): 47 µg
- εPLL uptake ([3]; 500 ppm εPLL in Tris-sorbitol): 208 µg
- εPLL uptake (average) ([4]; hydrated Proclear lenses autoclaved in PBS, ionic strength about 0.2, 500 ppm εPLL): 5 μg/lens
- εPLL uptake (average) ([4]; hydrated Proclear lenses autoclaved in TRIS buffer with 2% sorbitol, ionic strength about 0.02): about 120 μg/lens
- antimicrobial activity against Serratia marcescens (Serratia marcescens; Proclear lenses autoclaved in PBS with 500 ppm εPLL): no antimicrobial activity
- kill of Serratia marcescens (Serratia marcescens; Proclear lenses autoclaved in TRIS buffer with 2% sorbitol with εPLL): ~4 log
